Measured values: PMC8802806, “Synthesis and Antitumor Activity of Erlotinib Derivatives Linked With 1,2,3-Triazole” (Frontiers in Pharmacology, 2022)
Read-outs that look alike come from different tables or passages of the source.

Legend:
[1] = tested on: HeLa cells; experiment: Cell antiproliferative activity assay (CCK8); assay type: cell-based, human; details: for inhibition at 0.25 µM: 250 nM; for inhibition at 0.5 µM: 500 nM; for inhibition at 1 µM: 1000 nM; for inhibition at 2 µM: 2000 nM; for inhibition at 4 µM: 4000 nM; for inhibition at 8 µM: 8000 nM; for inhibition at 16 µM: 16000 nM
How it was run: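 HeLa cell antiproliferative activity was measured with a CCK8 assay. Cells were plated at 2,000 cells per well in 96-well plates and incubated overnight, then exposed to inhibitor dilutions (0.1 nM to 100 μM, 0.1% DMSO) for 48 h. CCK8 was added for 2 h, absorbance was read at 450 nm (reference 630 nm), and IC50 values were calculated in GraphPad Prism 6.0.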

[2] = tested on: HeLa cells; experiment: Flow cytometry detection for cell apoptosis (Annexin V/PI); assay type: cell-based, human; details: 72 h, Annexin V/PI; for Q2: FITC-A+ , PE-A+ Freq. of Parent / Q3: FITC-A+ , PE-A- Freq. of Parent: single samples
Experimental: Cell-apoptosis analysis was carried out by flow cytometry using the Annexin V/PI apoptosis kit (Solarbio, China) according to the manufacturer’s manual. Briefly, HeLa (5 × 10^4/well) cells were seeded in 12-well plates for 24 h and then treated with 0.1% DMSO (as control) or various concentrations of compounds 4d, 4k, and 4l for 72 h, respectively. Cells were harvested, washed with PBS, and then incubated with 100 μl of 1 × Annexin V binding buffer containing 1 μl FITC Annexin V for 10 min at RT in the dark. Cells were incubated for another 5 min at room temperature (RT) in the dark after 1 μl PI was added. PBS (200 µl) was added to each tube for flow cytometry analysis (BriCyte E6). The percentages of apoptotic cells were analyzed using FlowJo soft.

[3] = tested on: HeLa cells; experiment: Flow cytometry detection for cell cycle; assay type: cell-based, human; details: 6 μM, 48 h
Experimental: HeLa (5 × 10^4/well) cells were seeded in 12-well plates for 24 h and then treated with 0.1% DMSO (as control), compounds 4d, 4k, and 4l of various concentrations for 48 h, respectively. The treated cells were harvested, washed with PBS, and then stained using the cell-cycle staining kit [Multisciences (Lianke) Biotech] according to the manufacturer’s manual. The distribution of cell-cycle phases with different DNA contents was determined by flow cytometry (BriCyte E6) and analyzed using ModFit LT software.

[4] = Homo sapiens, HELA 2000cells/well, Repeat1, read-out: Inhibition (%) Repeat1
[5] = Homo sapiens, HELA 2000cells/well, Repeat2, read-out: Inhibition (%) Repeat2

COCCOc1cc2ncnc(Nc3cccc(-c4cn(-c5ccccc5OC)nn4)c3)c2cc1OCCOC [Compound 4k, [6,7-Bis-(2-methoxy-ethoxy)-quinazolin-4-yl]-{3-[1-(2-methoxy-phenyl)-1H-[1,2,3]triazol-4-yl]-phenyl}-amine]
IC50 ([1]; HeLa cells, CCK8, 48 h, mean ± SD, n = 3, read-out: IC50 (μM) HeLa): 4.16 ± 0.48 µM
IC50 ([1]; Homo sapiens, HeLa, 48 h, HeLa cells, CCK8, 48 h, mean ± SD, n = 3, read-out: IC50 (μM) HeLa): 3.79 µM
IC50 ([1]; Homo sapiens, HeLa, HELA 2000cells/well, supplement DataSheet2, Repeat1, read-out: IC50 Repeat1): 3.72 µM
IC50 ([1]; Homo sapiens, HeLa, HELA 2000cells/well, supplement DataSheet2, Repeat 2, read-out: IC50 Repeat 2): 4.68 µM
IC50 ([1]; Homo sapiens, HeLa, HELA 2000cells/well, supplement DataSheet2, mean of two repeats ± SD, read-out: IC50 mean±SD): 4.16 ± 0.481 µM
inhibition at 0.25 µM [1, 4]: 3.39%
inhibition at 0.25 µM [1, 5]: 0%
inhibition at 0.5 µM [1, 4]: 4.2%
inhibition at 0.5 µM [1, 5]: 6.96%
inhibition at 1 µM [1, 4]: 8.3%
inhibition at 1 µM [1, 5]: 7.05%
inhibition at 2 µM [1, 4]: 22.3%
inhibition at 2 µM [1, 5]: 10.7%
inhibition at 4 µM [1, 4]: 48.8%
inhibition at 4 µM [1, 5]: 43.1%
inhibition at 8 µM [1, 4]: 90.1%
inhibition at 8 µM [1, 5]: 73.9%
inhibition at 16 µM [1, 4]: 96.8%
inhibition at 16 µM [1, 5]: 97%
Q1 (flow cytometry quadrant, Figure 4A) ([2]; 3 μM): 2.64%
Q4 (flow cytometry quadrant, Figure 4A) ([2]; 3 μM): 93.0%
Q2: FITC-A+ , PE-A+ Freq. of Parent ([2]; 3 μM): 3.63%
Q3: FITC-A+ , PE-A- Freq. of Parent ([2]; 3 μM): 0.75%
Q1 (flow cytometry quadrant, Figure 4A) ([2]; 6 μM): 8.66%
Q4 (flow cytometry quadrant, Figure 4A) ([2]; 6 μM): 64.2%
Q2: FITC-A+ , PE-A+ Freq. of Parent ([2]; 6 μM): 21.9%
Q3: FITC-A+ , PE-A- Freq. of Parent ([2]; 6 μM): 5.30%
Q1 (flow cytometry quadrant, Figure 4A) ([2]; 12 μM): 24.0%
Q4 (flow cytometry quadrant, Figure 4A) ([2]; 12 μM): 11.6%
Q2: FITC-A+ , PE-A+ Freq. of Parent ([2]; 12 μM): 61.9%
Q3: FITC-A+ , PE-A- Freq. of Parent ([2]; 12 μM): 2.53%
melting point: 87 to 90 °C
cell cycle phase at which HeLa cells were arrested [3]: both G0/G1 and G2/M
